This is an account of results in patent publication US6670363B1, “Azole compounds as therapeutic agents for fungal infections” (Ranbaxy Laboratories Limited, priority 2000, dated 2003).

≈ marks a conversion by molar mass, not a printed value. Some results are limits rather than exact numbers.

What all share (format): cell-based
The subject of test [1] is Histoplasma capsulatum.
For test [2], the system named is A. fumigatus s 1008. Kind of test: In vitro MIC, NCCLS M38P broth method (RPMI 1640/MOPS pH7), Aspergillus fumigatus. The conditions noted are these: A. fumigatus strain 1008.
In test [3] the test system is Cryptococcus neoformans. Kind of test: In vitro MIC, NCCLS M27A, Cryptococcus neoformans. On the set-up: MIC, C. neoformans I: unit not given beside the values; MIC, C. neoformans M 106: unit not given here. Conditions: for MIC, C. neoformans I: C. neoformans strain I; for MIC, C. neoformans M 106: C. neoformans strain M 106.
For test [4], the system named is Candida. Kind of test: In vitro MIC, NCCLS M27A, Candida species. On the set-up: MIC, Candida albicans 1.549 / MIC, Candida albicans Y-01-19 / MIC, C. krusei 766-1 / MIC, C. krusei Q. C / MIC, Candida tropicalis ATCC / MIC, C. glabrata 90030: unit not given beside the values; MIC, Candida albicans A 26 / MIC, C. parapsilosis Q. C.: unit not given here. Conditions: for MIC, C. glabrata 90030: C. glabrata strain 90030; for MIC, C. krusei 766-1: C. krusei strain 766-1; for MIC, C. krusei Q. C: C. krusei strain Q. C; for MIC, C. parapsilosis Q. C.: C. parapsilosis strain Q. C.; for MIC, Candida albicans 1.549: Candida albicans strain 1.549; for MIC, Candida albicans A 26: Candida albicans strain A 26; for MIC, Candida albicans Y-01-19: Candida albicans strain Y-01-19.

On to `Cc1nn([C@H](C)[C@@](O)(Cn2cncn2)c2ccc(F)cc2F)c(=O)n1-c1ccc(N2CCN(c3cc(Cl)cc(Cl)c3)CC2)cc1` [Compound 30, 2-{[1R2S/1S2R]-2-(2,4-Difluorophenyl)-2-hydroxy-1-methyl-3-(1H-1,2,4-triazol-1-yl)propyl}-4-{4-[4-(3,5-dichlorophenyl)-1-piperazinyl]phenyl}-3-(2H,4H)-5-methyl-1,2,4-triazolone], for which the MIC, H. capsulatum in test [1] is 0.5 µg/mL (≈ 0.763 µM). Also, in test [2], the “MIC, A. fumigatus 1008” value is more than 16. Further, in test [3], the “MIC, C. neoformans I” value stood at 0.12 and the “MIC, C. neoformans M 106” value worked out at 0.25. In test [4], the “MIC, C. glabrata 90030” value is on record as 1.00; the “MIC, C. krusei 766-1” value amounted to 8.00; the “MIC, C. krusei Q. C” value is recorded as 1.00; the “MIC, C. parapsilosis Q. C.” value stood at 0.12. Also, in test [4], the “MIC, Candida albicans 1.549” value is recorded as 0.50; the “MIC, Candida albicans A 26” value is on record as less than 0.03; the “MIC, Candida albicans Y-01-19” value was 1.00; the “MIC, Candida tropicalis ATCC” value was less than 0.03.
As for `CCc1ccccc1N1CCN(c2ccc(-n3c(C)nn([C@H](C)[C@](O)(Cn4cncn4)c4ccc(F)cc4F)c3=O)cc2)CC1` [Compound 31, 2-{[1R2R/1S2S]-2-(2,4-Difluorophenyl)-2-hydroxy-1-methyl-3-(1H-1,2,4-triazol-1-yl)propyl}-4-{4-[4-(2-ethylphenyl)-1-piperazinyl]phenyl}-3-(2H,4H)-5-methyl-1,2,4-triazolone], in test [1], the MIC, H. capsulatum is 0.06 µg/mL (≈ 0.0976 µM). Besides, the “MIC, A. fumigatus 1008” value in test [2] came out at 1.00. Further, in test [3], the “MIC, C. neoformans I” value is less than 0.03 and the “MIC, C. neoformans M 106” value was less than 0.03. Also, in test [4], the “MIC, C. glabrata 90030” value was determined as 0.50; the “MIC, C. krusei 766-1” value is listed as 0.50; the “MIC, C. krusei Q. C” value was found to be 0.12; the “MIC, C. parapsilosis Q. C.” value is less than 0.03. Also, in test [4], the “MIC, Candida albicans 1.549” value is given as more than 16; the “MIC, Candida albicans A 26” value was less than 0.03; the “MIC, Candida albicans Y-01-19” value stood at 0.12; the “MIC, Candida tropicalis ATCC” value was less than 0.03.
Compound `CCc1ccccc1N1CCN(c2ccc(-n3c(C)nn([C@H](C)[C@@](O)(Cn4cncn4)c4ccc(F)cc4F)c3=O)cc2)CC1` [Compound 32, 2-{[1R2S/1S2R]-2-(2,4-Difluorophenyl)-2-hydroxy-1-methyl-3-(1H-1,2,4-triazol-1-yl)propyl}-4-{4-[4-(2-ethylphenyl)-1-piperazinyl]phenyl}-3-(2H,4H)-5-methyl-1,2,4-triazolone] yielded an MIC, H. capsulatum in test [1] of 0.25 µg/mL (≈ 0.407 µM). In addition, the “MIC, A. fumigatus 1008” value in test [2] was more than 16. Besides, in test [3], the “MIC, C. neoformans I” value amounted to 0.50 and the “MIC, C. neoformans M 106” value came out at 0.50. Further, in test [4], the “MIC, C. glabrata 90030” value is given as 2.00; the “MIC, C. krusei 766-1” value is given as more than 16; the “MIC, C. krusei Q. C” value is recorded as 4.00; the “MIC, C. parapsilosis Q. C.” value was 0.50. In test [4], the “MIC, Candida albicans 1.549” value is more than 16; the “MIC, Candida albicans A 26” value is given as less than 0.03; the “MIC, Candida albicans Y-01-19” value stood at 4.00; the “MIC, Candida tropicalis ATCC” value is recorded as less than 0.03.
For `Cc1nn([C@H](C)[C@](O)(Cn2cncn2)c2ccc(F)cc2F)c(=O)n1-c1ccc(N2CCN(c3ccc(Cl)cc3Cl)CC2)cc1` [Compound 33, 2-{[1R2R/1S2S]-2-(2,4-Difluorophenyl)-2-hydroxy-1-methyl-3-(1H-1,2,4-triazol-1-yl)propyl}-4-{4-[4-(2,4-dichlorophenyl)-1-piperazinyl]phenyl}-3-(2H,4H)-5-methyl-1,2,4-triazolone], the MIC, H. capsulatum in test [1] is 0.12 µg/mL (≈ 0.183 µM). For the same compound, the “MIC, A. fumigatus 1008” value in test [2] was 0.50. In test [3], the “MIC, C. neoformans I” value was less than 0.03 and the “MIC, C. neoformans M 106” value is listed as less than 0.03. For the same compound, in test [4], the “MIC, C. glabrata 90030” value came to 0.25; the “MIC, C. krusei 766-1” value is 0.25; the “MIC, C. krusei Q. C” value came out at 0.06; the “MIC, C. parapsilosis Q. C.” value is less than 0.03. In test [4], the “MIC, Candida albicans 1.549” value is given as 0.13; the “MIC, Candida albicans A 26” value is on record as less than 0.03; the “MIC, Candida albicans Y-01-19” value was 0.13; the “MIC, Candida tropicalis ATCC” value is reported as less than 0.03.
